From ChEMBL document CHEMBL2434868, “Chemical investigation of an antimalarial Chinese medicinal herb Picrorhiza scrophulariiflora” (Bioorg Med Chem Lett, 2013)

tested on: NFF; assay: Cytotoxicity against human NFF cells up to 100 uM after 3 days by SRB assay; format: cell-based; conditions: 72 h

Compound | Activity
CC(=O)OC(C)(C)/C=C/C(=O)[C@](C)(O)[C@H]1[C@H](O)C[C@@]2(C)[C@@H]3CC=C4[C@H](C[C@H](O[C@@H]5O[C@H](CO)[C@@H](O)[C@H](O)[C@H]5O)[C@H](O)C4(C)C)[C@]3(C)CC[C@]12C | Non-toxic

tested on: Plasmodium falciparum; assay: Antimalarial activity against ring stage of Plasmodium falciparum 3D7 infected in erythrocytes assessed as [3H]-hypoxanthine incorporation after 48 hrs by liquid scintillation counting analysis; format: functional, organism-based; conditions: not given

IC50 [µM] | Compound | IC90 [µM] | IC95 [µM]
> 25 | COc1cc(C(C)=O)ccc1O[C@@H]1O[C@H](COC(=O)/C=C/c2ccc(O)cc2)[C@@H](O)[C@H](O)[C@H]1O |  | 
> 25 | COc1cc(/C=C/C(=O)OC[C@H]2O[C@@H](Oc3ccc(C(C)=O)cc3OC)[C@H](O)[C@@H](O)[C@@H]2O)ccc1O |  | 
> 25 | COc1cc(C(C)=O)ccc1O[C@@H]1O[C@H](COC(=O)/C=C/c2ccccc2)[C@@H](O)[C@H](O)[C@H]1O |  | 

Continued, compound first:

Compound | IC50 [µM] | IC90 [µM] | IC95 [µM]
COc1cc(C(=O)O)ccc1O[C@@H]1O[C@H](COC(=O)/C=C/c2ccccc2)[C@@H](O)[C@H](O)[C@H]1O | > 25 |  | 
O=C(/C=C/c1ccccc1)OC[C@H]1O[C@@H](OC[C@@H](O)[C@@H](O)[C@H](O)[C@H](O)CO)[C@H](O)[C@@H](O)[C@@H]1O | > 25 |  | 
O=C(/C=C/c1ccc(O)c(O)c1)OC[C@H]1O[C@@H](OC[C@@H](O)[C@@H](O)[C@H](O)[C@H](O)CO)[C@H](O)[C@@H](O)[C@@H]1O | > 25 |  | 
CC(=O)c1ccc(O[C@@H]2O[C@H](COC(=O)/C=C/c3ccc(O)cc3)[C@@H](O)[C@H](O)[C@H]2O)cc1 | > 25 |  | 
CC(=O)OC(C)(C)CCC(=O)[C@](C)(O)[C@H]1[C@H](O)C[C@@]2(C)[C@@H]3CC=C4[C@H](C[C@H](O[C@@H]5O[C@H](CO)[C@@H](O)[C@H](O)[C@H]5O)[C@H](O)C4(C)C)[C@]3(C)CC[C@]12C | > 25 |  | 
CC(=O)OC(C)(C)/C=C/C(=O)[C@](C)(O)[C@H]1[C@H](O)C[C@@]2(C)[C@@H]3CC=C4[C@H](C[C@H](O[C@@H]5O[C@H](CO)[C@@H](O)[C@H](O)[C@H]5O)[C@H](O)C4(C)C)[C@]3(C)CC[C@]12C | 8.3 | 17.3 | 23.5
O=C(/C=C/c1ccccc1)OC[C@H]1O[C@@H](O[C@@H]2OC=C[C@H]3[C@H](O)[C@@H]4O[C@]4(CO)[C@@H]23)[C@H](O)[C@@H](O)[C@@H]1O [PICROSIDE I] | > 25 |  | 
